The source of these data is patent publication US20080139457A1, “Therapeutic compositions comprising chorionic gonadotropins and HMG CoA reductase inhibitors” (Virginia Commonwealth University, priority 2005, published 2008).

“Also recorded” adds a separate entry of the source.

One series has as its system ERBB1. The series can be described thus: Immunoblotting of ERBB1 phosphorylation in LNCaP cells. The class given is cell-based, human. Conditions: for effect on hCG-induced ERBB1 Y1173 phosphorylation: AG1478 1 μM, pertussis toxin 300 ng/ml, PD184352 1 μM or GM6001 1 μM, 30 min after hCG 2 mU/ml. Here is the method: (§1) SDS-PAGE and Immunoblotting. The cells were plated at 5×10^5 cells/cm^2 and treated with drugs at the indicated concentrations and after the indicated time of treatment, lysed in whole-cell lysis buffer (0.5 M Tris-HCl, pH 6.8, 2% SDS, 10% glycerol, 1% β-mercaptoethanol, 0.02% bromophenol blue), and the samples were boiled for 30 minutes. […] All immunoblots were visualized by enhanced chemiluminescence (ECL).
(§2) (2) LNCaP cells were cultured as described above. 12 hours after plating, the cells were treated with vehicle (VEH, PBS) or pertussis toxin (300 ng/ml). 23 hours after plating cells were treated with vehicle (VEH, DMSO) or the ERBB1 inhibitor AG1478 (1 μM).
(3) LNCaP cells were cultured as described above.
(4) LNCaP cells were cultured as described above.
A general note: Immunoblotting shows a protein as a band on a membrane.

The test system of the next series is ERK½, JNK½, AKT (S473). Put plainly: Immunoblotting of phosphorylation status of ERK½, JNK½, AKT in LNCaP cells. The class given is cell-based, human. The settings on record: for effect on hCG-induced ERK½ activation: pertussis toxin 300 ng/ml, AG1478 1 μM or GM6001 1 μM, 30 min after hCG 2 mU/ml. The procedure:
SDS-PAGE and Immunoblotting. The cells were plated at 5×10^5 cells/cm^2 and treated with drugs at the indicated concentrations and after the indicated time of treatment, lysed in whole-cell lysis buffer (0.5 M Tris-HCl, pH 6.8, 2% SDS, 10% glycerol, 1% β-mercaptoethanol, 0.02% bromophenol blue), and the samples were boiled for 30 minutes. The boiled samples were loaded onto 10-14% SDS-PAGE and electrophoresis was run overnight. Proteins were electrophoretically transferred onto 0.22 μm nitrocellulose, and immunoblotted with various primary antibodies against different proteins. All immunoblots were visualized by enhanced chemiluminescence (ECL).
(1) LNCaP cells were cultured as described above. […] 0-6 hours after treatment, the cells were isolated, lysed in SDS PAGE sample buffer and equal protein concentrations subjected to SDS PAGE followed by immunoblotting to determine the phosphorylation status (activity status) of ERK½, JNK½, AKT (S473) and the expression level of ERK2 protein.
as §2
(4) LNCaP cells were cultured as described above. […] Thirty minutes after irradiation the cells were isolated, lysed in SDS PAGE sample buffer and equal protein concentrations subjected to SDS PAGE followed by immunoblotting to determine the phosphorylation status (activity status) of ERK½ and ERBB1 Y1068 and the expression levels of ERBB1 and ERK2 proteins.
LNCaP cells were cultured as described above. […] At the indicated times after treatment (12-96 h), the cells were isolated, lysed in SDS PAGE sample buffer and equal protein concentrations subjected to SDS PAGE followed by immunoblotting to determine the phosphorylation status (activity status) of ERK½, JNK½, AKT (S473) and the expression level of ERK2 protein.

For series [1], the system named is LNCaP cells. The series can be described thus: Apoptosis assay in LNCaP cells (trypan blue exclusion). The class given is cell-based, human. Conditions: for effect of inhibitor on cell viability / hCG lethality: LY294002 10 μM or AG1478 1 μM 30 min before hCG 2 mU/ml. The procedure: Cell culture. Human prostate cells (PC3 and LCNaP) were purchased from the ATCC were cultured at 37° C. (5% (v/v CO2) in vitro using RPMI supplemented with 10% (v/v) fetal calf serum.
LNCaP cells were cultured as described above. […] The cells were isolated by trypsinization 96 hours after irradiation. The attached and floating cells were combined, and cell viability was determined by trypan blue exclusion assays using a light microscope (*p<0.05 value greater than corresponding vehicle/irradiated+vehicle value; n=3 per data point ±SEM from 3 studies).
LNCaP cells were cultured as described above. […] Caspase inhibitors were re-supplemented every 24 hours. After 96 hours of culture, cell viability numbers were determined MTT assays using a plate reader. The cells were isolated 96 hours after irradiation by trypsinization, the attached and floating cells combined, and cell viability determine by trypan blue exclusion assays using a light microscope.
(2) LNCaP cells were cultured as described above. […] Cells were isolated 96 h after irradiation by trypsinization, the attached and floating cells combined, and cell viability determine by trypan blue exclusion assays using a light microscope.
LNCaP cells were cultured as described above. […] Cells were isolated 96 hours after irradiation by trypsinization, the attached and floating cells combined, and cell viability determine by trypan blue exclusion assays using a light microscope. Cells were then lysed in SDS PAGE sample buffer and equal protein concentrations subjected to SDS PAGE followed by immunoblotting to determine the PARP1 ADP-ribosylation status (activity status) in the presence or absence of PJ-34.
LNCaP cells were cultured as described in Example 1. Twelve hours after plating the cells were transfected using Lipofectamine with either a scrambled siRNA (SCR) or with siRNA molecules to suppress PARP1 or AIF expression (siPARP; siAIF; 10 nM each). […] Cells were isolated 96 hours after irradiation by trypsinization, the attached and floating cells combined, and cell viability determine by trypan blue exclusion assays using a light microscope. Cells were then lysed in SDS PAGE sample buffer and equal protein concentrations subjected to SDS PAGE followed by immunoblotting to determine PARP1 and AIF expression in the presence or absence of siPARP and siAIF, siRNA molecules, respectively. PARP-induced cell death has been linked by some groups to the cytotoxic actions of AIF.
Apoptosis assay. LNCaP cells were cultured as described above. […] Cells were isolated by trypsinization 96 hours after irradiation, the attached and floating cells combined, and cell viability determine by trypan blue exclusion assays using a light microscope.
LNCaP cells were cultured as described above. […] Cells were isolated 96 hours after irradiation by trypsinization, the attached and floating cells combined, and cell viability determine by trypan blue exclusion assays using a light microscope.
LNCaP cells were cultured as described above. Twenty three hours after plating, cells were treated with either the control, vehicle (VEH, DMSO), or farnesyl pyrophosphate (FPP; 1 μM) or geranylgeranyl pyrophosphate (GGPP, 1 μM). […] In some cells the statin may enhance the effects of the chorionic gonadotropin by blocking farnesylation in which case the use of a farnesyl transferase inhibitor will be of further use.
Apoptosis assay in LNCaP Cells. (1) LNCaP cells were cultured as described above. Twelve hours after plating, cells were infected with either empty vector virus (CMV) or with viruses to express dominant negative AKT, dominant negative MEK1, dominant negative IkB, constitutively active AKT, and constitutively active MEK1 at a multiplicity of infection (m.o.i.) of 25. In other parallel plates of cells, 24 h after plating, cells were pretreated 30 minutes prior to any additional manipulation with either vehicle (VEH, DMSO) or a JNK½ inhibitory peptide (JNK-IP, 10 μM).

For series [2] the following is noted: cited from earlier work.
Series [3] has as its system LNCaP cells. The series can be described thus: MTT cell growth assay in LNCaP cells. The class given is cell-based, human. Conditions: caspase inhibitor 50 μM, radiation 4 Gy, 96 h. The procedure:
LNCaP cells were cultured as described above. […] Caspase inhibitors were re-supplemented every 24 hours. After 96 hours of culture, cell viability numbers were determined MTT assays using a plate reader.
In general terms: Formazan colour is commonly taken as a measure of viable cells.

The subject of series [4] is LNCaP cells. Put plainly: Cell survival (colony formation) assay in LNCaP cells. The class given is cell-based, human. The settings on record: AG1478 1 μM removed 96 h after hCG 2 mU/ml and 4 Gy; 28 days. The procedure:
(§3) LNCaP cells were cultured as described above.
Apoptosis Assay. LNCaP cells were cultured as described above.
as §3

The next series concerns PARP1. The series can be described thus: PARP1 ADP-ribosylation status (immunoblot) in LNCaP cells. The settings on record: AG1478 5 minutes after or 30 minutes before radiation; hCG 2 mU/ml, 4 Gy. The class given is cell-based, human. The procedure: as §1, §3, §3

As for pertussis toxin, the “effect on hCG-induced ERBB1 Y1173 phosphorylation” value with ERBB1 is on record as “blocked”. The “effect on hCG-induced ERK½ activation” value with ERK½, JNK½, AKT (S473) was “suppressed hCG-induced activation of ERK½”.
Regarding `COC(=O)[C@H](CC(C)C)NC(=O)c1ccc(NC[C@@H](N)CS)cc1-c1ccccc1` [GGTI-286], the “cell killing with hCG when used in place of lovastatin” value with LNCaP cells [1] (GGTI-286 10 μM with hCG) was “Identical data LNCaP cell killing data for hCG and lovastatin exposure were obtained”.
In the case of `Cl.O=c1cc(N2CCOCC2)oc2c(-c3ccccc3)cccc12` [LY294002, 2-(4-Morpholinyl)-8-phenyl-4H-1-benzopyran-4-one hydrochloride], in the series on LNCaP cells [1] (96 h), the “effect of inhibitor on cell viability / hCG lethality” value is given as “enhanced hCG lethality in LNCaP cells in a greater than additive fashion”.
Regarding `CC(C)=CCC/C(C)=C/CC/C(C)=C/CC/C(C)=C/COP(=O)(O)OP(=O)(O)O` [GGPP, geranylgeranyl pyrophosphate], the “effect on the lethal interaction between hCG and lovastatin” value in the series on LNCaP cells [1] (FPP 1 μM or GGPP 1 μM, lovastatin 0.6 μM, hCG 2 mU/ml, 96 h) was “abolished the lethal interaction between hCG and lovastatin”.
As for `CN(C)CC(=O)Nc1ccc2[nH]c(=O)c3ccccc3c2c1` [PJ-34], in the series on LNCaP cells [1] (PJ-34 5 μM, hCG 2 mU/ml, 4 Gy, 96 h), the “effect of PARP inhibition on potentiation of hCG lethality by radiation” value is “abolished the potentiation of hCG lethality by radiation”.
With `CC[C@H](C)C(=O)O[C@H]1C[C@@H](C)C=C2C=C[C@H](C)[C@H](CC[C@@H]3C[C@@H](O)CC(=O)O3)[C@H]21` [lovastatin], the “concentrations achievable in human plasma” value in series [2] was 100 to 600 nM. Also, the “enhancement of the lethality of hCG” value in the series on LNCaP cells [1] (lovastatin 0.1-0.6 μM 30 min before hCG 1 or 2 mU/ml, 96 h) is “enhanced the lethality of hCG to an extent greater than was observed using a PI3K inhibitor”. In addition, the “JNK½ activation, combined exposure” value with ERK½, JNK½, AKT (S473) (lovastatin 0.6 μM with hCG 2 mU/ml, within 48 hours) is listed as “promoted JNK½ activation”. The “hCG induced ERK½ and AKT activation” value with ERK½, JNK½, AKT (S473) (lovastatin 0.6 μM, hCG 2 mU/ml, within 48 hours) is “suppressed hCG induced ERK½ and AKT activation”. The “basal AKT activity” value in the series with ERK½, JNK½, AKT (S473) (lovastatin 0.6 μM, within 48 hours) is recorded as “suppressed basal AKT activity; also recorded: reduced AKT activity”.
With `CNC(=O)[C@H](Cc1c[nH]c2ccccc12)NC(=O)[C@@H](CC(=O)NO)CC(C)C` [GM6001], the “effect on hCG-induced ERBB1 Y1173 phosphorylation” value in the series on ERBB1 was “abolisged ERBB1 Y1173 phosphorylation”. For the same molecule, in the series with ERK½, JNK½, AKT (S473), the “effect on hCG-induced ERK½ activation” value is “abolisged ERBB1 Y1173 phosphorylation and ERK½ activation”.
On to zVAD, for which, in the series with LNCaP cells [3], the “protection from toxicity of ionizing radiation in MTT assays” value was “partially protected cells from the toxicity of ionizing radiation”. In the series with LNCaP cells [1] (LEHD 50 μM or zVAD 50 μM, lovastatin 0.6 μM, hCG 2 mU/ml, 96 h), the “effect of caspase inhibitor on lethality of lovastatin and hCG combination” value is “reduced the lethality of the lovastatin and hCG combination”. Moreover, the “effect of caspase inhibitor on cell death by hCG and radiation” value in the series on LNCaP cells [1] (caspase inhibitor 50 μM, hCG 2 mU/ml, 4 Gy, 96 h) was “modestly blunted”.
Regarding `COc1cc2ncnc(Nc3cccc(Cl)c3)c2cc1OC` [AG1478], in the series with LNCaP cells [4], the “effect of ERBB1 inhibition on cell killing by hCG and radiation (colony formation)” value was “prevented the greater than additive induction of cell killing caused by combined hCG and radiation exposure”. The “effect of inhibitor on cell viability / hCG lethality” value in the series with LNCaP cells [1] (96 h) was “did not significantly alter cell viability following hCG exposure”. For the same molecule, in the series with PARP1, the “effect on PARP activation by combined hCG and radiation” value was “abolished the profound activation of PARP caused by combined hCG and radiation treatment”. For the same molecule, in the series on ERBB1, the “effect on hCG-induced ERBB1 Y1173 phosphorylation” value is on record as “blocked”. Also, the “effect on hCG-induced ERK½ activation” value with ERK½, JNK½, AKT (S473) is recorded as “blocked hCG-induced ERK½ activation”.
Consider `O=C(NOCC1CC1)c1ccc(F)c(F)c1Nc1ccc(I)cc1Cl` [PD184352], for which the “effect on hCG-induced ERBB1 Y1173 phosphorylation” value in the series with ERBB1 is reported as “abolished”. For the same molecule, in the series with ERBB1 (PD184352 1 μM, 4 Gy, 30 min after irradiation), the “effect on radiation-induced ERBB1 Y1173 phosphorylation” value was “did not alter radiation-induced ERBB1 Y1173 phosphorylation”.
